From patent publication US20230130102A1, “Na/K-ATPase LIGANDS AND USE THEREOF FOR TREATMENT OF CANCER” (Marshall University Research Corporation, priority 2019, published 2023)
Entries after “also recorded” stand apart in the source; their conditions may differ.

Key:
[1] = test system: EGF or dopamine induced ERK activation; assay: EGF- or dopamine-induced ERK activation in LLC-PK1 cells; format: cell-based, pig
Method: Western blot, Immunoprecipitation and Immunostaining. Cells were grown to 100% confluency and Western blot were performed as described before. Images were quantified with ImageJ software from NIH. Immunoprecipitation studies were performed as described before. α1 NKA immunostaining was performed by growing cells on sterilized coverslips in 6 well tissue culture plates and permeabilization/fixation with ice-cold methanol followed by blocking with 5% horse serum and 0.1% Triton X-100 in 1× Phosphate buffered saline (PBS) for 30 minutes. Coverslips were then stained with an anti-α1 NKA antibody (Millipore, Cat #05-369) at 1:100 dilution in 1% BSA (Bovine Serum Albumin) containing 1×PBS solution for overnight. Next day after three washes, coverslips were stained with Alexa Fluor 488 conjugated anti-mouse secondary antibody (Thermo-Fisher) for 1 hour, washed extensively and then imaged using a fluorescent microscope with GFP filter or confocal microscope (LEICA-DMIRE2). E-cadherin and occludin immunostaining was performed in a similar manner. Phospho-Src, phospho ERK1/2 immunostaining were performed as described before and images were taken with a LEICA DMIRE2 confocal microscope. […]

YFP-tagged α1 NKA = target: T1, YFP-tagged α1 NKA (Rattus norvegicus, UniProt P06685); assay: ouabain-induced α1 NKA endocytosis in YFP-α1-TCN cells; format: cell-based; details: YFP-α1-TCN cells, pretreatment
T1 construct: expressed in transfected cells; host or cells: YFP-α1-TCN cells
Method: It is appreciated that ouabain induces Src/ERK activation (increased protein phosphorylation) of LLC-PK1 cells by binding to α1 NKA and thereby initiates a signaling cascade which results in the endocytosis of the α1 NKA to terminate the signaling.
α1 NKA endocytosis assay. Endocytosis assay was performed as described before.
Characterization of MB5 activity on the NKA receptor function known as the NKA/Src binary receptor mechanism was conducted in a pig kidney epithelial cells (LLC-PK1)-based platform using immunostaining and Western blot analyses. […] The change of NKA conformation that occurs upon binding of agonists such as ouabain, results in the release and activation of the Src kinase domain from the “Naktide” site of NKA CD3, while the other interaction (constitutive) persists between NKA CD2 and the SH2 domain of Src.

[2] = test system: clone 2 spheroids (DU145 derived); assay: 3D culture spheroid invasion assay, subclone 2; format: cell-based, human
Method: (§1) 3D culture-spheroid invasion assay. Cells were trypsinized gently (0.05% Trypsin-EDTA) and diluted at 1000 cells in 20 μl of full serum media for DU145 and C4-2 derived sub-clones or 500 cells in 20 ul for PC3 cells and allowed to form spheroids using hanging drop technique for 3 days, as described previously. Generated spheroids were then embedded into 3D matrix (not yet solidified at the time of experiment), as described in the previous section, on top of a 1% solidified agarose coating in 48 well plates. Spheroids were monitored from day 1 to different time points and images were taken using a phase contrast microscope fitted with camera, at same settings. Spheroid growth or invasion area was quantified using ImageJ software from NIH. The following formulas were used for quantitation of spheroids:
(§2) Spheroid invasion=(Invasion area/Spheroid area)*100
(§3) Spheroid growth=(Spheroid area at Day 3 or 7-Spheroid area at 16 hours)/Spheroid area at 16 hours
(§4) For drug treatment, compound was diluted into media, from stock solution. For MMP secretion, conditioned media for 3 days were collected from top of matrix and assessed for MMP secretion by Western blot using Matrix Remodeling Antibody Sampler kit from Cell Signaling Technology (Cat #73959).

subclone 2 spheroids = assay: MMP secretion by spheroids (Western blot of conditioned media); format: cell-based, human
Method: as §4

PC3 cells [3] = assay: 3D culture spheroid invasion and growth, PC3; format: cell-based, human
Method: as §1, §2, §3, §4

PC3 cells [4] = assay: Western blot and cell fractionation in PC3 cells; format: cell-based, human; details: PC3, 72-120 hours of treatment
Method: Western blot, Immunoprecipitation and Immunostaining. Cells were grown to 100% confluency and Western blot were performed as described before. Images were quantified with ImageJ software from NIH. Immunoprecipitation studies were performed as described before. α1 NKA immunostaining was performed by growing cells on sterilized coverslips in 6 well tissue culture plates and permeabilization/fixation with ice-cold methanol followed by blocking with 5% horse serum and 0.1% Triton X-100 in 1× Phosphate buffered saline (PBS) for 30 minutes. Coverslips were then stained with an anti-α1 NKA antibody (Millipore, Cat #05-369) at 1:100 dilution in 1% BSA (Bovine Serum Albumin) containing 1×PBS solution for overnight. Next day after three washes, coverslips were stained with Alexa Fluor 488 conjugated anti-mouse secondary antibody (Thermo-Fisher) for 1 hour, washed extensively and then imaged using a fluorescent microscope with GFP filter or confocal microscope (LEICA-DMIRE2). E-cadherin and occludin immunostaining was performed in a similar manner. Phospho-Src, phospho ERK1/2 immunostaining were performed as described before and images were taken with a LEICA DMIRE2 confocal microscope.

A425P and Y260A cells = assay: basal ERK activation in Src binding mutant Y260A and A425P cells; format: cell-based, pig
Method: Characterization of MB5 activity on the NKA receptor function known as the NKA/Src binary receptor mechanism was conducted in a pig kidney epithelial cells (LLC-PK1)-based platform using immunostaining and Western blot analyses. […] The change of NKA conformation that occurs upon binding of agonists such as ouabain, results in the release and activation of the Src kinase domain from the “Naktide” site of NKA CD3, while the other interaction (constitutive) persists between NKA CD2 and the SH2 domain of Src. […] In LLC-PK1-derived cells with low NKA receptor constitutive activity due to substantial reduction (over 80%) of α1 NKA expression by siRNA (PY17 cells), increased basal Src and ERK activity is observed due to the abnormally high amount of Src kinase that remains in an active conformation. Increased basal Src and ERK activity is also observed in LLC-PK1-derived cells with reduced NKA receptor constitutive activity that result from mutations in either domain of interaction with Src without alteration of the ion pumping activity (e.g. A425P on the Naktide sequence, or Y260A on the CD2 domain).

[5] = test system: subclone 4 and 2 xenograft; assay: tumor xenograft of aggressive subclones 4 and 2 in NOD/SCID mice; format: in vivo, mouse
Method: Mice studies. Animal protocols were approved by an Institutional Animal Care and Use Committee (IACUC) according to NIH guidelines. Tumor xenografts were established by subcutaneous injection of 5×10^6 cancer cells into the left and right flanks of 10-week-old male NOD/SCID mice (Charles River). Tumor length (L) and width (W) were measured with calipers weekly and tumor volume was estimated as V=(L×W^2)/2. After the tumor volumes reached approximately 100 mm^3, mice were sacrificed and tumors were harvested. Half of the tumors were used for protein extraction and the other half were digested with collagenase I solution (SIGMA) to isolate cancer cells.
For MB5 treatment, after tumor volume reached approximately 100 mm^3, mice were injected peritoneally with DMSO or MB5 at 20 mg/kg or 10 mg/kg daily and further monitored for tumor growth weekly. At the end of treatment period (about 2-3 weeks), tumors were harvested and tumor lysates were analyzed for protein expression by Western blot.
The therapeutic potential of MB5 in a tumor xenograft model was first tested by injecting DU145 or corresponding α1 knockdown cells (KD) into the right or left flank of 10-week-old NOD/SCID mice. The tumor growth was monitored twice weekly. […] Next, it was determined whether MB5 could decrease tumor growth of highly aggressive subclones derived from DU145. […]

plasma stability = format: in vitro ADME

## O=c1c2cccc(O)c2oc2c(O)c(O)ccc12 [MB5]
[1]
  EGF-induced ERK activation: did not inhibit; also recorded: failed to inhibit; also recorded: did not affect EGF-induced ERK activation
  dopamine-induced ERK activation: did not inhibit; also recorded: failed to inhibit; also recorded: did not affect dopamine-induced activation of ERK
YFP-tagged α1 NKA
  inhibition of ouabain-induced α1 NKA endocytosis: able to inhibit ouabain-induced α1 NKA endocytosis; also recorded: potent inverse agonist of ouabain-induced α1 NKA endocytosis; also recorded: inhibited ouabain-induced α1 NKA endocytosis in a concentration dependent manner
[2]; clone 2 spheroids, 3D culture
  spheroid invasion: abolished the invasion; also recorded: suppressed spheroid invasion by subclone 2 cells in a dose-dependent manner; also recorded: significantly reduced invasion of clone 2 spheroids in a dose-dependent manner
[2]; subclone 2 spheroids, 72 hours
  spheroid size: significantly reduced spheroid size
Subclone 2 spheroids
  MMP2 and 9 secretion: significantly reduced MMP2 and 9 secretions
PC3 cells [3]; PC3, 0.1 μM
  inhibition of spheroid size: about 25%
PC3 cells [3]; PC3, 1 μM
  inhibition of spheroid size: ~50%
PC3 cells [3]; PC3 spheroids
  spheroid size / growth: reduced spheroid invasion and growth; also recorded: reduced spheroid size in a concentration-dependent manner
PC3 cells [3]; PC3 spheroids, day 7
  spheroid invasion: reduced spheroid invasion; also recorded: suppressed spheroid invasion; also recorded: reduced both invasion
PC3 cells [4]
  EMT phenotype: reversed the EMT phenotype
  Src activation: decreased Src activation
  α1 NKA expression: significantly increased α1 NKA expression
A425P and Y260A cells
  basal ERK phosphorylation: did not reduce high levels of ERK phosphorylation
[5]; 10 mg/kg, subclones 4 and 2
  tumor growth: significantly reduced tumor growth from both cell types; also recorded: significantly reduced xenografted tumor growth
[5]; subclone 2 tumor lysates, Western blot
  α1 NKA and E-cadherin expression in tumor lysates: increasing α1 NKA and E-cadherin expression
Plasma stability
  plasma stability: good plasma stability
